Literature values as cited in publication PMC12736120, “First-in-Human Phase I Clinical Trial of SLC-391, a Novel and Selective AXL Inhibitor, in Patients with Advanced Solid Tumours” (Pharmaceuticals, 2025).

System: TYRO3
Details: stated in the Introduction, no reference given; read-out: IC50 against TYRO3; cited from earlier work

## Nc1ncc(-c2cnn(C3CCNCC3)c2)cc1-c1nnc(CC2CC2)o1 [SLC-391, 3-(5-[cyclopropylmethyl]-1,3,4-oxadiazol-2-yl)-5-(1-[piperidin-4-yl]-1H-pyrazol-4-yl)-pyridin-2-amine]
  IC50: 42.3 nM
